Test results taken from patent US8691800B2, “Quinoline derivatives as antibacterial agents” (Janssen Pharmaceutica N.V., priority 2005, dated 2014).
In brackets after ≈: the same amount, converted by molar mass.

Tests used:
[1] = system: Bacillus subtilis (ATCC43639); test: Microtitre plate assay, IC90 for bacterial growth; format: cell-based; conditions: 90% inhibitory concentration for bacterial growth
Method: (§1) The bacteria used in this study were grown overnight in flasks containing 100 ml Mueller-Hinton Broth (Becton Dickinson—cat. no. 275730) in sterile de-ionized water, with shaking, at 37° C. Stocks (0.5 ml/tube) were stored at 70° C. until use. Bacteria titrations were performed in microtiter plates and colony forming units (CFUs) were determined. In general, an inoculum level of approximately 100 CFUs was used for susceptibility testing.
(§2) Anti bacterial Susceptibility Testing: IC90 Determination
(§3) Flat-bottom, sterile 96-well plastic microtiter plates were filled with 180 μl of sterile deionized water, supplemented with 0.25% BSA. Subsequently, stock solutions (7.8× final test concentration) of compounds were added in 45 μl volumes in column 2. Serial five-fold dilutions (45 μl in 180 μl) were made directly in the microtiter plates from column 2 to reach column 11. Untreated control samples with (column 1) and without (column 12) inoculum were included in each microtiter plate. Depending on the bacteria type, approximately 10 to 60 CFU per well of bacteria inoculum (100 TCID50), in a volume of 100 μl in 2.8× Mueller-Hinton broth medium, was added to the rows A to H, except column 12. The same volume of broth medium without inoculum was added to column 12 in row A to H. The cultures were incubated at 37° C. for 24 hours under a normal atmosphere (incubator with open air valve and continuous ventilation). At the end of incubation, one day after inoculation, the bacterial growth was quantitated fluorometrically. Therefore resazurin (0.6 mg/ml) was added in a volume of 20 μl to all wells 3 hours after inoculation, and the plates were re-incubated overnight. A change in colour from blue to pink indicated the growth of bacteria. The fluorescence was read in a computer-controlled fluorometer (Cytofluor Biosearch) at an excitation wavelength of 530 nm and an emission wavelength of 590 nm. The % growth inhibition achieved by the compounds was calculated according to standard methods. The IC90 (expressed in μg/ml) was defined as the 90% inhibitory concentration for bacterial growth.

[2] = system: Enterococcus faecalis (ATCC29212); test: Microtitre plate assay, IC90 for bacterial growth; format: cell-based; conditions: for IC90 EFA 29212: 90% inhibitory concentration for bacterial growth; for IC90: Enterococcus faecalis, ATCC29212, 90% inhibitory concentration for bacterial growth, read-out: IC90 EFA 29212
Method: as §1, §2, §3

[3] = system: Listeria monocytogenes (ATCC49594); test: Microtitre plate assay, IC90 for bacterial growth; format: cell-based; conditions: for IC90 LMO 49594: 90% inhibitory concentration for bacterial growth
Method: as §1, §2, §3

[4] = system: Pseudomonas aeruginosa (ATCC27853); test: Microtitre plate assay, IC90 for bacterial growth; format: cell-based; conditions: for IC90 PAE 27853: 90% inhibitory concentration for bacterial growth; for IC90: Pseudomonas aeruginosa, ATCC27853, 90% inhibitory concentration for bacterial growth, read-out: IC90 PAE 27853
Method: as §1, §2, §3

[5] = system: Staphylococcus aureus (ATCC25923); test: Microtitre plate assay, IC90 for bacterial growth; format: cell-based; conditions: 90% inhibitory concentration for bacterial growth
Method: as §1, §2, §3

[6] = system: Staphylococcus aureus (ATCC29213); test: Microtitre plate assay, IC90 for bacterial growth; format: cell-based; conditions: 90% inhibitory concentration for bacterial growth, 24 hours at 37° C., resazurin; for IC90: Staphylococcus aureus, ATCC29213, 24 h, read-out: IC90 STA 29213
Method: as §1, §2, §3

[7] = system: Streptococcus mutans (ATCC33402); test: Microtitre plate assay, IC90 for bacterial growth; format: cell-based; conditions: for IC90 SMU 33402: 90% inhibitory concentration for bacterial growth
Method: as §1, §2, §3

[8] = system: Streptococcus pneumoniae (ATCC6305); test: Microtitre plate assay, IC90 for bacterial growth; format: cell-based; conditions: for IC90 SPN 6305: 90% inhibitory concentration for bacterial growth; for IC90: Streptococcus pneumoniae, ATCC6305, 90% inhibitory concentration for bacterial growth, read-out: IC90 SPN 6305
Method: as §1, §2, §3

[9] = system: Streptococcus pyogens (ATCC8668); test: Microtitre plate assay, IC90 for bacterial growth; format: cell-based; conditions: for IC90 SPY 8668: 90% inhibitory concentration for bacterial growth; for IC90: Streptococcus, ATCC8668, 90% inhibitory concentration for bacterial growth, read-out: IC90 SPY 8668
Method: as §1, §2, §3

[10] = system: methicilline resistant Staphylococcus aureus (MRSA) (a clinical isolate from the University of Antwerp); test: Microtitre plate assay, IC90 for bacterial growth; format: cell-based; conditions: 90% inhibitory concentration for bacterial growth; for IC90: Staphylococcus aureus, MRSA, read-out: IC90 STA RMETHIC
Method: as §1, §2, §3

Structure (SMILES) | IC90 BSU 43639 [1] [µg/mL] | IC90 EFA 29212 [2] [µg/mL] | IC90 LMO 49594 [3] [µg/mL] | IC90 PAE 27853 [4] [µg/mL] | IC90 STA 25923 [5] [µg/mL] | IC90 STA 29213 [6] [µg/mL] | IC90 SMU 33402 [7] [µg/mL] | IC90 SPN 6305 [8] [µg/mL] | IC90 SPY 8668 [9] [µg/mL] | IC90 ([3]; Listeria monocytogenes, ATCC49594, 90% inhibitory concentration for bacterial growth, read-out: IC90 LMO 49594) [µg/mL] | IC90 ([7]; Streptococcus mutans, ATCC33402, 90% inhibitory concentration for bacterial growth, read-out: IC90 SMU 33402) [µg/mL] | IC90 [2] [µg/mL] | IC90 [4] [µg/mL] | IC90 [6] [µg/mL] | IC90 [8] [µg/mL] | IC90 [9] [µg/mL] | melting point [°C] | IC90 STA RMETHIC [10] [µg/mL] | IC90 [10] [µg/mL]
COc1nc2ccc(Br)cc2cc1C(c1ccc(Cl)cc1)C1(c2cccc3ccccc23)CCN(C)CO1 (single isomer, unassigned) [Compound 13] |  |  |  |  |  |  |  |  |  |  |  | 14.8 (≈ 25.2 µM) | 14.8 (≈ 25.2 µM) | 14.8 (≈ 25.2 µM) | 13.2 (≈ 22.5 µM) | 14.8 (≈ 25.2 µM) |  |  | 
COc1nc2ccc(Br)cc2cc1C(c1ccccc1)C1(c2cccc3ccccc23)CC[N+](C)(C)CO1.[I-] (single isomer, unassigned) [Compound 17] |  | 1.8 |  | 2.0 |  | 1.8 |  | 1.8 | 1.8 |  |  |  |  |  |  |  | 245 | 2.3 | 
COc1nc2ccc(Br)cc2cc1C(c1ccccc1)C1(c2cccc3ccccc23)CC[N+](C)(C)CO1.[I-] (single isomer, unassigned) [Compound 18] |  |  |  |  |  |  |  |  |  |  |  | 1.8 | 2 | 2.3 | 1.8 | 1.8 | 228 |  | 2.3
CC[N+]1(C)CCC(c2cccc3ccccc23)(C(c2ccccc2)c2cc3cc(Br)ccc3nc2OC)OC1.[I-] (single isomer, unassigned) [Compound 19] |  |  |  |  |  |  |  | 0.5 |  |  |  | 1.8 | 3.7 | 0.4 |  | 1.8 | 236 |  | 2.3
CC[N+]1(C)CCC(c2cccc3ccccc23)(C(c2ccccc2)c2cc3cc(Br)ccc3nc2OC)OC1.[I-] (single isomer, unassigned) [Compound 20] |  | 1.8 |  | 4.6 |  | 0.5 |  | 1.8 | 2.1 |  |  |  |  |  |  |  | 215 | 2.3 | 

More lines, main results first:

IC90 BSU 43639 [1] [µg/mL] | IC90 EFA 29212 [2] [µg/mL] | IC90 LMO 49594 [3] [µg/mL] | IC90 PAE 27853 [4] [µg/mL] | IC90 STA 25923 [5] [µg/mL] | IC90 STA 29213 [6] [µg/mL] | IC90 SMU 33402 [7] [µg/mL] | IC90 SPN 6305 [8] [µg/mL] | IC90 SPY 8668 [9] [µg/mL] | IC90 ([3]; Listeria monocytogenes, ATCC49594, 90% inhibitory concentration for bacterial growth, read-out: IC90 LMO 49594) [µg/mL] | IC90 ([7]; Streptococcus mutans, ATCC33402, 90% inhibitory concentration for bacterial growth, read-out: IC90 SMU 33402) [µg/mL] | IC90 [2] [µg/mL] | IC90 [4] [µg/mL] | IC90 [6] [µg/mL] | IC90 [8] [µg/mL] | IC90 [9] [µg/mL] | melting point [°C] | Structure (SMILES) | IC90 STA RMETHIC [10] [µg/mL] | IC90 [10] [µg/mL]
2.5 (≈ 4.95 µM) | 12.7 (≈ 25.2 µM) | 10.1 (≈ 20 µM) | 12.7 (≈ 25.2 µM) | 12.7 (≈ 25.2 µM) | 12.7 (≈ 25.2 µM) | 12.7 (≈ 25.2 µM) | 1.1 (≈ 2.18 µM) | 10.1 (≈ 20 µM) |  |  |  |  |  |  |  |  | COc1ccc2nc(OC)c(C(c3ccccc3)C3(c4cccc5ccccc45)CCN(C)CO3)cc2c1 (single isomer, unassigned) [Compound 10] | 50.5 (≈ 100 µM) | 
48.9 (≈ 100 µM) | 48.9 (≈ 100 µM) | 48.9 (≈ 100 µM) | 48.9 (≈ 100 µM) | 48.9 (≈ 100 µM) | 48.9 (≈ 100 µM) | 48.9 (≈ 100 µM) | 4.9 (≈ 10 µM) | 19.5 (≈ 39.9 µM) |  |  |  |  |  |  |  |  | COc1nc2ccc(C)cc2cc1C(c1ccccc1)C1(c2cccc3ccccc23)CCN(C)CO1 (single isomer, unassigned) [Compound 11] | 48.9 (≈ 100 µM) | 
 | 13.6 (≈ 25.2 µM) |  | 13.6 (≈ 25.2 µM) | 13.6 (≈ 25.2 µM) | 13.6 (≈ 25.2 µM) |  | 12.1 (≈ 22.4 µM) | 10.8 (≈ 20 µM) | 13.6 (≈ 25.2 µM) | 10.8 (≈ 20 µM) |  |  |  |  |  |  | COc1nc2ccc(-c3ccco3)cc2cc1C(c1ccccc1)C1(c2cccc3ccccc23)CCN(C)CO1 (single isomer, unassigned) [Compound 12] | 13.6 (≈ 25.2 µM) | 
 | 14.8 (≈ 25.2 µM) |  | 14.8 (≈ 25.2 µM) |  | 14.8 (≈ 25.2 µM) |  | 14.8 (≈ 25.2 µM) | 14.8 (≈ 25.2 µM) |  |  |  |  |  |  |  | 201 | COc1nc2ccc(Br)cc2cc1C(c1ccc(Cl)cc1)C1(c2cccc3ccccc23)CCN(C)CO1 (single isomer, unassigned) [Compound 21] |  | 
